Measured values from patent publication US11492346B2, “Benzisoxazole sulfonamide derivatives” (Pfizer Inc., priority 2019, dated 2022).
Like-named read-outs stand apart in the source and are kept apart here.

What was measured:
Format in all cases: biochemical
KAT6A = KAT6A (Homo sapiens (Human), UniProt Q92794); assay: KAT assay (SAMDI mass spectrometry), KAT6A;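 also: Baculovirus-expressed KAT6A acetylating histone H3 (1-21) peptide (2 µM), 30-60 min at room temperature, % product conversion fitted to Morrison equation for tight-binding competitive inhibitors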
Procedure: (§1) Prepare 10 mM stock solutions in 100% DMSO from solid material • 2. Serial dilute 10 mM, 1 mM or 0.1 mM compound stocks 3-fold in 100% DMSO for 11-point dose response
(§2) Prepare 1× assay buffer containing 10 mM Tris HCL pH 8.0, 2.5 mM NaCl, 0.5 mM EDTA, 0.005% BSG and 0.02% Tween-20 • 2. Dilute Histone peptide (CPC Scientific) and AcCoA (Sigma) together in assay buffer to 2×. • 3. Dilute KAT enzyme in assay buffer to 2×.
(§3) Enzyme reaction • 1. Final reaction conditions for each KAT assay in a 20 ul assay reaction volume: • i. KAT5 25 nM, 1 uM AcCoA, 2 uM H4 1-21 peptide, 30-minute reaction • ii. KAT6A 15 nM, 1 uM AcCoA, 2 uM H3 1-21 peptide, 45-minute reaction • iii. KAT6B 25 nM, 1 uM AcCoA, 2 uM H3 1-21 peptide, 60-minute reaction • iv. KAT7 12.5 nM, 1 uM AcCoA, 2 uM H3 1-21 peptide, 45-minute reaction • v. KAT8 15 nM, 1 uM AcCoA, 2 uM H3 1-21 peptide, 45-minute reaction • 2. Add 0.5 ul of diluted compound to the assay plate (384-well V-bottom polypropylene plates) or 0.5 ul of DMSO for control wells. • 3. Add 10 ul of 2× Histone peptide/2×AcCoA mix to the assay plate. • 4. Add 10 ul of 2× enzyme to the assay plate. • 5. Stop the reaction after the indicated time with the addition of 2 ul of 5% formic acid • 6. Each reaction was analyzed using self-assembled monolayer desorption/ionization time-of-flight mass spectrometry (Mrksich, Milan (2008) Mass Spectrometry of Self-Assembled Monolayers: A New Tool for Molecular Surface Science ACS Nano 2008 2 (1), 7-18; SAMDI Tech, Inc. (Chicago, Ill.)). • 7. Area under the curve (AUC) for both substrate and product peaks was determined for KAT5 at M.W. 2561 [Substrate+H]^+ and 2603 [Product+H]^+ with a +/−1 Da tolerance, respectively • 8. Area under the curve (AUC) for both substrate and product peaks was determined for KAT6a, KAT6B, KAT7 and KAT8 at M.W. 2723 [Substrate+H]^+ and 2765 [Product+H]^+ with a +/−1 Da tolerance, respectively. […] Percent conversion to product was calculated by: AUCProduct/(AUCsubstrate+AUCProduct).
(§4) IC50 values were determined by fitting the % conversion at each inhibitor concentration to the 4-parameter IC50 equation using Pfizer proprietary curve fitting software. • 2. Ki values were determined by fitting the % conversion at each inhibitor concentration to the Morrison equation for tightbinding competitive inhibitors using Pfizer proprietary curve fitting software.
(§5) KAT enzymes were expressed using a baculovirus expression system and purified at Pfizer, La Jolla. […] Acetyl coenzyme A was purchased from Sigma-Aldrich (St. Louis, Mo.). All other biochemical reagents were purchased from Sigma-Aldrich or ThermoFisher Scientific (Waltham, Mass.).
(§6) KAT assays were performed at room temperature in assay buffer containing 1 μM AcCoA, 2 μM histone peptide, 10 mM Tris HCL pH 8.0, 2.5 mM NaCl, 0.5 mM EDTA, 0.005% BSG and 0.02% Tween-20. 10 ul of 2× Histone peptide/AcCoA mix was added to a 384-well V-bottom polypropylene assay plate containing 0.5 ul of serially diluted test compound in 100% dimethyl sulfoxide (DMSO). To start the reaction, 10 ul of 2× enzyme solution was added to the assay plate. KAT assays were terminated after 30-60 minutes with the addition of 2 ul of 5% formic acid. All assays used histone H3 (1-21) peptide except for the KAT5 assay which used histone H4 (1-21) peptide. The final enzyme concentration for each KAT was as follows: KAT5, 25 nM; KAT6A, 15 nM; KAT6B, 25 nM; KAT7, 12.5 nM; KAT8 15 nM. Each reaction was analyzed using self-assembled monolayer desorption/ionization time-of-flight mass spectrometry (Mrksich, Milan (2008) Mass Spectrometry of Self-Assembled Monolayers: A New Tool for Molecular Surface Science ACS Nano 2008 2 (1), 7-18; SAMDI Tech, Inc. (Chicago, Ill.)).
(§7) Area under the curve (AUC) for both substrate and product peaks was determined for KAT5 at M.W. 2561 [Substrate+H]^+ and 2603 [Product+H]^+ with a +/−1 Da tolerance, respectively.

KAT5 = KAT5 (Homo sapiens (Human), UniProt Q92993); assay: KAT assay (SAMDI mass spectrometry), KAT5; conditions: read-out: KAT5 Ki at 1 μM AcCoA;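 also: Baculovirus-expressed KAT5 acetylating a histone H4 peptide at room temperature, read as percent conversion to product, Ki from a Morrison tight-binding competitive fit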
Sequence of KAT5 (Q92993 whole entry): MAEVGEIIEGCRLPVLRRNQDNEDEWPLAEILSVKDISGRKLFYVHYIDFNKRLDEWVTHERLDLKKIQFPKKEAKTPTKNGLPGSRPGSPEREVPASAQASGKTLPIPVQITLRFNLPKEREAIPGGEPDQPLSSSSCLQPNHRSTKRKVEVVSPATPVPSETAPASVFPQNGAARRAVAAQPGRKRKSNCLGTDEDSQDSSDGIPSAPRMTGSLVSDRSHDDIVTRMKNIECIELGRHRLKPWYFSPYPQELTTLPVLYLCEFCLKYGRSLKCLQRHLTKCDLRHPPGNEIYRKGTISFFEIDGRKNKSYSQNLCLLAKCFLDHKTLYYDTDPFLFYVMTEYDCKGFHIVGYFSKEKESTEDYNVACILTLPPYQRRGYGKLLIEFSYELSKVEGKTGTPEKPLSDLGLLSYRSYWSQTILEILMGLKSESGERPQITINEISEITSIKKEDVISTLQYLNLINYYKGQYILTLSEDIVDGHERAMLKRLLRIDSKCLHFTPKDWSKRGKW
Procedure: as §1, §2, §3, §4, §5, §6, §7

KAT6B = KAT6B (Homo sapiens (Human), UniProt Q8WYB5); assay: KAT assay (SAMDI mass spectrometry), KAT6B
Sequence of KAT6B (Q8WYB5 whole entry): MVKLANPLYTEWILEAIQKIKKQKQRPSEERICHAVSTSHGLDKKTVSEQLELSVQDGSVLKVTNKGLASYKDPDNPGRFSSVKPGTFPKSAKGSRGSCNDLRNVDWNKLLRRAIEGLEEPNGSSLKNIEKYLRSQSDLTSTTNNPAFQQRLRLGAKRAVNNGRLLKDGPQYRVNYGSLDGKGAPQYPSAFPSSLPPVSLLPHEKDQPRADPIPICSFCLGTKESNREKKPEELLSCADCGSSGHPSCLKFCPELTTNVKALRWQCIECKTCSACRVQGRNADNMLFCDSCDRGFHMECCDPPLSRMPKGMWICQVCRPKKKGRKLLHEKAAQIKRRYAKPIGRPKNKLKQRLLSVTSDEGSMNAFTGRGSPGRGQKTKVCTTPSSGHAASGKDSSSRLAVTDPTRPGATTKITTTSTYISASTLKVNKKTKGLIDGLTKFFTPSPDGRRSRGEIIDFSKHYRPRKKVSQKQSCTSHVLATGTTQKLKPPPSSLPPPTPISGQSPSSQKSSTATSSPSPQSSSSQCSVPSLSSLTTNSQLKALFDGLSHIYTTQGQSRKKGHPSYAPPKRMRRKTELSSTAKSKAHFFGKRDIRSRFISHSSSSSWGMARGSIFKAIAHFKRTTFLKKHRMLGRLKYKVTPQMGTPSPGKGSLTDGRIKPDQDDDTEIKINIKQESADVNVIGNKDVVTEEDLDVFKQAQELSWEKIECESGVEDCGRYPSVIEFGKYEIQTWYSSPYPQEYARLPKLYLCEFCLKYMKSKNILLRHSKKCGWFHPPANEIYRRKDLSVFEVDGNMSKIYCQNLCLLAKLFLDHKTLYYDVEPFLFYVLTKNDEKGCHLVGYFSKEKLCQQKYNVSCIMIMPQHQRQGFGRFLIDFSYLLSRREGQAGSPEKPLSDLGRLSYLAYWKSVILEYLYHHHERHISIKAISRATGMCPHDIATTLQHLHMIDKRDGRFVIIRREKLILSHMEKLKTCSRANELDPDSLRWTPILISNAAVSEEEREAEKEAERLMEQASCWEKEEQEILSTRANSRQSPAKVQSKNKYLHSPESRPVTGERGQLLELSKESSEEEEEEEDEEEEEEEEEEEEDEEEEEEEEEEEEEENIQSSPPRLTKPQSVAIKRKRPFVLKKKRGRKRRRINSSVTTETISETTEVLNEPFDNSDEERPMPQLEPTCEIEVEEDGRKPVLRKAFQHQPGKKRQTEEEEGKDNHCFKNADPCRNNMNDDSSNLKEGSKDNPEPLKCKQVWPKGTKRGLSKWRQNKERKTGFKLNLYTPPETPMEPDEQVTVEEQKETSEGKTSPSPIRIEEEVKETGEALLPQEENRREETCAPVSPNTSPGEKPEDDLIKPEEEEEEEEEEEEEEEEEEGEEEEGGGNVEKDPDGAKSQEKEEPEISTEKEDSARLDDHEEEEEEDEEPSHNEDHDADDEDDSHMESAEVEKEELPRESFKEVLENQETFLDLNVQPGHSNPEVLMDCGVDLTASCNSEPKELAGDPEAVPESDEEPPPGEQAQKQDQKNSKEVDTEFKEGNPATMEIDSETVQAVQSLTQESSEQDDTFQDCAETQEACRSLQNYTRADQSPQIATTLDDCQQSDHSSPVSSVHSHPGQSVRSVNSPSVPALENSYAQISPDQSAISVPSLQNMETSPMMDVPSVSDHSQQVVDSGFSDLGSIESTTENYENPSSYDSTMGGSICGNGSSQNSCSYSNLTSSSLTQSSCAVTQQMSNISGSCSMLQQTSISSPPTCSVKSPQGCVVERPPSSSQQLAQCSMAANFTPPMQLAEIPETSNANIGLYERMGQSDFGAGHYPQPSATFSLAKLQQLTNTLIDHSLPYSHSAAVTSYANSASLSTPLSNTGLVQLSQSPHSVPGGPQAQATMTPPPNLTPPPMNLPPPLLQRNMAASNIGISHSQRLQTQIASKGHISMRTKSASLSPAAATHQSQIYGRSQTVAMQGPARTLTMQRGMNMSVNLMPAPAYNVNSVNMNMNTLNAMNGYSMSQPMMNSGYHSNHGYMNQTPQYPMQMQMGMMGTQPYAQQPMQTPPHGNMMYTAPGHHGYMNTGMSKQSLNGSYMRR
Procedure: as §1, §2, §3, §4, §5, §6, §7

KAT7 = KAT7 (Homo sapiens (Human), UniProt O95251); assay: KAT assay (SAMDI mass spectrometry), KAT7;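 also: Baculovirus-expressed enzyme acetylating a histone peptide at room temperature, percent conversion from product and substrate peak areas, Ki from a Morrison tight-binding competitive fit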
Sequence of KAT7 (O95251 whole entry): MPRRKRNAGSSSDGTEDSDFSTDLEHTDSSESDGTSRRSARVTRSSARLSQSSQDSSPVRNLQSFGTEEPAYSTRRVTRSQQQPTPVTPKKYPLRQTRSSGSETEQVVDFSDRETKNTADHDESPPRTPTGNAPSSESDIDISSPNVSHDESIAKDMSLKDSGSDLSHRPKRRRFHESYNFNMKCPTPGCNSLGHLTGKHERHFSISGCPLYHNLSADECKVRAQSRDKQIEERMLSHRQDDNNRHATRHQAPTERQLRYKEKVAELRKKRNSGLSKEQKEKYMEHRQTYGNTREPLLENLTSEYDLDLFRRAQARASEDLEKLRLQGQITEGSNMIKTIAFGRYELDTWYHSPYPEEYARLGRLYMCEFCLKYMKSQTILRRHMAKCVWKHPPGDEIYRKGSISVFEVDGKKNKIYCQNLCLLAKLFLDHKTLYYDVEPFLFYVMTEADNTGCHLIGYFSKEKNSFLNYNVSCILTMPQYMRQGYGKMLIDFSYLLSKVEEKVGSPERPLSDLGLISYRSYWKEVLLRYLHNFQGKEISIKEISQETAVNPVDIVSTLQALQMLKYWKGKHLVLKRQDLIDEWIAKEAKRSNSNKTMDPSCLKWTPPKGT
Procedure: as §1, §2, §3, §4, §5, §6, §7

KAT8 = KAT8 (Homo sapiens (Human), UniProt Q9H7Z6); assay: KAT assay (SAMDI mass spectrometry), KAT8; conditions: read-out: KAT8 Ki at 1 μM AcCoA
Sequence of KAT8 (Q9H7Z6 whole entry): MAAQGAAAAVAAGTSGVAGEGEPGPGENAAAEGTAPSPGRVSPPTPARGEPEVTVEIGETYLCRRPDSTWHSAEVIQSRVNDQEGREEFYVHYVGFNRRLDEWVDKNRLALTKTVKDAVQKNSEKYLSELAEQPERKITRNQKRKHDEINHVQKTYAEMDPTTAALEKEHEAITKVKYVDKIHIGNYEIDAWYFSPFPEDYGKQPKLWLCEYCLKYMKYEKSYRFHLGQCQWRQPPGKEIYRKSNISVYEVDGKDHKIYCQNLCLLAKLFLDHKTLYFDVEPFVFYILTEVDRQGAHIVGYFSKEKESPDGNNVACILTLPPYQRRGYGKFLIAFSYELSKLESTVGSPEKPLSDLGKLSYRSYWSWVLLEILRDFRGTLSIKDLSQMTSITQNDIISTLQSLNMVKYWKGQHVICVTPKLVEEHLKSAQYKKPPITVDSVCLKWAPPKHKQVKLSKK
Procedure: as §1, §2, §3, §4, §5, §6, §7

[1] = read-out: KAT6a Ki at 1 μM AcCoA, 1 μM AcCoA
[2] = read-out: KAT6a Ki at 10 μM AcCoA, 10 μM AcCoA
[3] = 25 μM AcCoA, read-out: KAT6b Ki at 25 μM AcCoA
[4] = read-out: KAT6b Ki at 1 μM AcCoA, 1 μM AcCoA
[5] = read-out: KAT7 Ki at 1 μM AcCoA

| Compound | Ki (KAT6A; [1]) | Ki (KAT6A; [2]) | Ki (KAT5) | Ki (KAT6B; [3]) | Ki (KAT6B; [4]) | Ki (KAT7; [5]) | Ki (KAT8) | Ki (KAT6A; KAT6a Ki at 1 μM AcCoA, 1 μM AcCoA) | Ki (KAT6A; KAT6a Ki at 10 μM AcCoA, 10 μM AcCoA) | Ki (KAT7; KAT7 Ki at 1 μM AcCoA) |
| --- | --- | --- | --- | --- | --- | --- | --- | --- | --- | --- |
| CCc1ccc(OC)c(S(=O)(=O)Nc2noc3cc(Cn4cccn4)cc(OC)c23)c1 [Example 1, 5-ethyl-2-methoxy-N-{4-methoxy-6-[(1H-pyrazol-1-yl)methyl]-1,2-benzoxazol-3-yl}benzene-1-sulfonamide] | 0.55 nM | 0.43 nM | 120 nM | 1.14 nM | 0.68 nM | 50 nM | 110 nM |  |  |  |
| COc1cccc(OC)c1S(=O)(=O)Nc1noc2cc(Cn3nccc3C)cc(OC)c12 [Example 3, 2,6-dimethoxy-N-{4-methoxy-6-[(5-methyl-1H-pyrazol-1-yl)methyl]-1,2-benzoxazol-3-yl}benzene-1-sulfonamide] | 3.79 nM | 1.54 nM | 9790 nM |  | 8.63 nM | 1720 nM | 17400 nM |  |  |  |
| COc1ccc(S(=O)(=O)Nc2noc3cc(Cn4cccn4)cc(OC)c23)c(OC)c1 [Example 5] | 1.11 nM | 1.38 nM | 530 nM |  | 2.68 nM | 80 nM | 660 nM |  |  |  |
| COc1cccc(F)c1S(=O)(=O)Nc1noc2cc(Cn3cccn3)cc(OC)c12 [Example 6] | 1.5 nM | 2.32 nM | 980 nM |  | 2.5 nM | 120 nM | 3320 nM |  |  |  |
| COc1cccc(OC)c1S(=O)(=O)Nc1noc2cc(Cn3cc(F)cn3)cc(OC)c12 [Example 7] | 21 nM |  | 4530 nM |  | 28.3 nM | 230 nM | 4460 nM |  |  |  |
| COc1cc(Br)cc(OC)c1S(=O)(=O)Nc1noc2cc(Cn3cccn3)cc(OC)c12 [Example 8] | 1.54 nM | 3.23 nM | 1710 nM | 6.63 nM | 5.74 nM | 60 nM | 2870 nM |  |  |  |
| COc1cccc(OC)c1S(=O)(=O)Nc1noc2cc(Cn3cccn3)cc(OC(C)C)c12 [Example 10] | 2.72 nM | 4.65 nM | 60200 nM |  | 2.27 nM | 9320 nM | 19400 nM |  |  |  |
| COc1cccc(OC)c1S(=O)(=O)Nc1noc2cc(Cn3cccn3)cc(OC3CC3)c12 [Example 11] | 2.86 nM | 5.57 nM | 12500 nM |  | 14.6 nM | 5960 nM | 3260 nM |  |  |  |
| COCc1ccc(OC)c(S(=O)(=O)Nc2noc3cc(Cn4cccn4)cc(OC)c23)c1 [Example 12] | 1.82 nM | 1.7 nM | 1170 nM | 2.14 nM | 1.88 nM | 920 nM | 1070 nM |  |  |  |
| COc1cc(OC)c(S(=O)(=O)Nc2noc3cc(Cn4cccn4)cc(OC)c23)c(OC)c1 [Example 14] | 1.12 nM | 0.49 nM | 270 nM | 1.05 nM |  | 50 nM | 420 nM |  |  |  |
| CCc1cc(S(=O)(=O)Nc2noc3cc(Cn4cccn4)cc(OC)c23)c(OC)cc1OC [Example 15] | 0.65 nM | 0.35 nM | 70 nM | 0.6 nM |  | 30 nM | 170 nM |  |  |  |
| COc1ccc(OC(F)(F)F)cc1S(=O)(=O)Nc1noc2cc(Cn3cccn3)cc(OC)c12 [Example 16] | 1.27 nM | 0.64 nM | 830 nM | 1.73 nM |  | 120 nM | 1750 nM |  |  |  |
| COc1ccc(C)cc1S(=O)(=O)Nc1noc2cc(Cn3cccn3)cc(OC)c12 [Example 17] | 0.7 nM | 0.51 nM | 150 nM | 1.21 nM |  | 90 nM | 220 nM |  |  |  |
| COc1ccc(C(C)C)cc1S(=O)(=O)Nc1noc2cc(Cn3cccn3)cc(OC)c12 [Example 18] | 0.83 nM | 0.38 nM | 130 nM | 0.96 nM |  | 120 nM | 100 nM |  |  |  |
| COc1ccc(OC)c(S(=O)(=O)Nc2noc3cc(Cn4cccn4)cc(OC)c23)c1 [Example 19] | 2.18 nM |  | 800 nM | 3.44 nM |  | 150 nM | 960 nM |  |  |  |
| COc1cc2c(cc1S(=O)(=O)Nc1noc3cc(Cn4cccn4)cc(OC)c13)CCCC2 [Example 20] | 0.34 nM | 0.87 nM | 150 nM | 4.08 nM | 1.78 nM |  | 470 nM |  |  |  |
| COc1ccc2c(c1S(=O)(=O)Nc1noc3cc(Cn4cccn4)cc(OC)c13)CCCC2 [Example 21] | 1.23 nM |  | 1030 nM | 1.14 nM |  | 120 nM | 830 nM |  |  |  |
| COc1cccc(OC)c1S(=O)(=O)Nc1noc2cc(Cn3ccnn3)cc(OC)c12 [Example 22] | 16.5 nM |  | 11700 nM |  | 13.2 nM | 12900 nM | 17400 nM |  |  |  |
| COc1cccc(OC)c1S(=O)(=O)Nc1noc2cc(Cn3nccn3)cc(OC)c12 [Example 23] | 1.22 nM | 1.24 nM | 2070 nM | 1.34 nM | 0.87 nM | 40 nM | 1970 nM |  |  |  |
| COc1cc(C2CC2)cc(OC)c1S(=O)(=O)Nc1noc2cc(Cn3cccn3)cc(OC)c12 [Example 24] | 1.01 nM | 0.46 nM | 190 nM | 1.89 nM |  | 20 nM | 160 nM |  |  |  |
| CCOc1cc(Cn2cccn2)cc2onc(NS(=O)(=O)c3c(OC)cccc3OC)c12 [Example 25] | 2.74 nM | 1.83 nM | 12500 nM | 4.46 nM |  | 1080 nM | 12500 nM |  |  |  |

| Compound | Ki (KAT6A; [1]) | Ki (KAT6A; [2]) | Ki (KAT5) | Ki (KAT6B; [3]) | Ki (KAT6B; [4]) | Ki (KAT7; [5]) | Ki (KAT8) | Ki (KAT6A; KAT6a Ki at 1 μM AcCoA, 1 μM AcCoA) | Ki (KAT6A; KAT6a Ki at 10 μM AcCoA, 10 μM AcCoA) | Ki (KAT7; KAT7 Ki at 1 μM AcCoA) |
| --- | --- | --- | --- | --- | --- | --- | --- | --- | --- | --- |
| COc1cc(OC)c(S(=O)(=O)Nc2noc3cc(Cn4cccn4)cc(OC4CC4)c23)c(OC)c1 [Example 26] | 8.01 nM | 3.16 nM | 125000 nM | 12.7 nM |  | 7790 nM | 27100 nM |  |  |  |
| COc1cccc(OC)c1S(=O)(=O)Nc1noc2cc(Cn3cccn3)c(C3CC3)cc12 [Example 31] | 0.32 nM |  |  | 0.89 nM |  | 56 nM |  |  |  |  |
| CCc1ccc(OC)c(S(=O)(=O)Nc2noc3cc(Cn4cccn4)c(F)cc23)c1 [Example 32] | 1.4 nM |  |  | 2.1 nM |  | 60 nM |  |  |  |  |
| COc1ccccc1S(=O)(=O)Nc1noc2cc(Cn3cccn3)ccc12 [Example 34] | 30 nM |  |  | 4.2 nM |  | 1200 nM |  |  |  |  |
| COc1cc2c(NS(=O)(=O)c3c(OC)cccc3OC)noc2cc1Cn1cccn1 [Example 39] | 0.74 nM |  |  | 0.26 nM |  | 8 nM |  |  |  |  |
| COc1cccc(OC)c1S(=O)(=O)Nc1noc2cc(Cn3cccn3)c(OC(F)F)cc12 [Example 41] | 0.36 nM |  |  | 0.36 nM |  | 230 nM |  |  |  |  |
| COc1cc2c(cc1S(=O)(=O)Nc1noc3cc(Cn4cccn4)cc(OC)c13)CCCO2 [Example 42] | 0.72 nM |  |  | 0.48 nM |  | 160 nM |  |  |  |  |
| COCc1ccc(OC)c(S(=O)(=O)Nc2noc3cc(Cn4cccn4)c(F)cc23)c1 [Example 44] | 12 nM |  |  | 43 nM |  | 630 nM |  |  |  |  |
| COc1cccc(OC)c1S(=O)(=O)Nc1noc2cc(Cc3ccccn3)cc(OC)c12 [Example 107, 2,6-dimethoxy-N-[4-methoxy-6-(pyridin-2-ylmethyl)-1,2-benzoxazol-3-yl]benzenesulfonamide] | 1.7 nM | 2.6 nM |  | 2.9 nM |  | 370 nM |  |  |  |  |
| COc1cccc(OC)c1S(=O)(=O)Nc1noc2cc(Cc3ncco3)cc(OC)c12 [Example 110, 2,6-dimethoxy-N-[4-methoxy-6-(1,3-oxazol-2-ylmethyl)-1,2-benzoxazol-3-yl]benzenesulfonamide] |  |  |  | 8.8 nM |  |  |  | 2.5 nM | 2.1 nM | 230 nM |
| COc1cccc(OC)c1S(=O)(=O)Nc1noc2cc(Cc3ccon3)cc(OC)c12 [Example 114] | 1.9 nM |  |  | 2 nM |  | 220 nM |  |  |  |  |
| COc1cccc(OC)c1S(=O)(=O)Nc1noc2cc(Cc3ncccn3)cc(OC)c12 [Example 116] | 3 nM |  |  | 25 nM |  | 95 nM |  |  |  |  |
| COc1cccc(OC)c1S(=O)(=O)Nc1noc2cc(Cc3cnn(C)c3)cc(OC)c12 [Example 124] | 700 nM |  |  |  |  | 6290 nM |  |  |  |  |
| COc1cccc(OC)c1S(=O)(=O)Nc1noc2cc(Cc3cocn3)cc(OC)c12 [Example 127] | 8.6 nM |  |  |  |  | 137 nM |  |  |  |  |
| COc1cccc(OC)c1S(=O)(=O)Nc1noc2cc(Cn3cccn3)c(F)c(OC)c12 [Example 128, N-{5-fluoro-4-methoxy-6-[(1H-pyrazol-1-yl)methyl]-1,2-benzoxazol-3-yl}-2,6-dimethoxybenzene-1-sulfonamide] | 0.54 nM | 0.59 nM |  | 1.2 nM |  | 49 nM |  |  |  |  |
| COc1ccccc1S(=O)(=O)Nc1noc2cc(Cn3cccn3)c(F)c(OC)c12 [Example 129] | 0.33 nM |  |  |  |  | 10.6 nM |  |  |  |  |
| COc1ccccc1S(=O)(=O)Nc1noc2cc(Cn3cccn3)cc(C3CC3)c12 [Example 130] | 0.77 nM |  |  |  |  | 100 nM |  |  |  |  |
| Cc1ccc(S(=O)(=O)Nc2noc3cc(Cn4cccn4)c(C)cc23)cc1C [Example 131] | 28.3 nM |  |  |  |  | 662 nM |  |  |  |  |
| COc1ccccc1S(=O)(=O)Nc1noc2cc(Cn3cccn3)c(C)cc12 [Example 132] | 4.1 nM |  |  |  |  | 124 nM |  |  |  |  |
| COc1ccccc1S(=O)(=O)Nc1noc2cc(Cn3nccn3)cc(OC)c12 [Example 133] | 2.9 nM |  |  |  |  | 19.2 nM |  |  |  |  |
